Target: T1, human TRPM8 (Homo sapiens, UniProt Q7Z2W7)
T1 construct: expressed in transfected cells
Assay: Menthol-induced Ca2+ influx in HEK293 cells stably expressing human TRPM8
Assay type: cell-based
Conditions: 30 microM menthol-induced Ca2+ influx, HEK293 cells stably expressing human TRPM8, 11-point dose-response
Experimental: Measurement of the Menthol-Induced Ca^2+ Influx in HEK293 Cells Stably Expressing Human TRPM8
A cell-based Ca^2+ influx assay using HEK293 cells stably expressing human TRPM8 was used to identify the activity of compounds.
HEK293 cells stably expressing human TRPM8 were grown in T175 flasks at 37° C. in a 5% CO2 humidified incubator to about 80% confluence. Media composition consisted of Dulbecco's Modified Eagle Medium (high glucose), 10% fetal calf serum (FCS), 100 units/ml Penicillin, 100 microg/ml Streptomycin and 600 microg/ml Geneticine. At 24 hours prior to assay, cells were seeded in poly-D-lysine coated 384-well plates (BD FALCON) at a density of 30,000 cells per well in culture medium and grown overnight in 5% CO2 at 37° C. On the assay day, growth media was removed and cells were loaded with 0.5 microM Fluo4-AM (Molecular Probes) and 0.005% Pluronic F-127 dissolved in assay buffer (Hank's balanced salt solution (HBSS), 19.4 mM HEPES pH7.4, 2.5 mM Probenecid) for 1 hour at room temperature. After washing with assay buffer, the cells were preincubated with various concentrations of the compounds for 5 min. The changes in intracellular calcium concentration by addition of 30 microM menthol were monitored by the cell imaging technology by Hamamatsu Photonics's Functional Drug Screening System (FDSS).
The IC50 values for compounds of the present invention were determined from 11-point dose-response studies. Curves were generated using the average of duplicate wells for each data point. Finally, the IC50 values are calculated with the best-fit dose curve determined by XLfit (ID Business Solutions Ltd.).

T1 sequence (Q7Z2W7 whole entry): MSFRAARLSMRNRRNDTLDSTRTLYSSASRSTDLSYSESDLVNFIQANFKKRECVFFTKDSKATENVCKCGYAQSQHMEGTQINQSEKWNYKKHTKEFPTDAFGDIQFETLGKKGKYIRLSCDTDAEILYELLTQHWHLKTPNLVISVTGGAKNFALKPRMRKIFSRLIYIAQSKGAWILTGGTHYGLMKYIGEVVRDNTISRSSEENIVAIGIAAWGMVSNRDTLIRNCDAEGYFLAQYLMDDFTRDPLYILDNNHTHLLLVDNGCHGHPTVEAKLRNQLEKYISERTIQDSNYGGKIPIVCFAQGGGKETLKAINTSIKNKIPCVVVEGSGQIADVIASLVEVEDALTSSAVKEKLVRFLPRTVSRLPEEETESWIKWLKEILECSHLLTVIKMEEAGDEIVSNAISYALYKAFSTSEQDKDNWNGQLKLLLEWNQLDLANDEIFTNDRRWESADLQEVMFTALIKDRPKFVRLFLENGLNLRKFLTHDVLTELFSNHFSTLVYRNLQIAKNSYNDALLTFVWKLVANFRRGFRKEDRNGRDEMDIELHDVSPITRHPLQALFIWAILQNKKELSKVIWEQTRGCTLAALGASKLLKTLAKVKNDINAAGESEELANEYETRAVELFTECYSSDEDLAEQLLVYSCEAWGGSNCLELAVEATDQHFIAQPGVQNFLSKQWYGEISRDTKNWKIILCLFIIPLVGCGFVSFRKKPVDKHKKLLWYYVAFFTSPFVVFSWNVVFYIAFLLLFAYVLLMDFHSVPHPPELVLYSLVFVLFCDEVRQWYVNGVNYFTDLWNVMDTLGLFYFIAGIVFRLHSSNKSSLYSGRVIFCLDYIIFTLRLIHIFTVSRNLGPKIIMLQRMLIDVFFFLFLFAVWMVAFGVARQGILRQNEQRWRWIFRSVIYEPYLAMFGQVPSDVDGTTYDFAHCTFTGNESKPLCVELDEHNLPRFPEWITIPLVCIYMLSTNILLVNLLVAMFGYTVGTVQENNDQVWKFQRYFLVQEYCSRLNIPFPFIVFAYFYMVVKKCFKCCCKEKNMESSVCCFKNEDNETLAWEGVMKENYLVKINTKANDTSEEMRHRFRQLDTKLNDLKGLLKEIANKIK

Compound | IC50 [nM]
Cn1cc2cc(CN(c3ncc(C(F)(F)F)cc3Cl)S(=O)(=O)c3ccc(C(=O)O)cc3)ccc2n1 [Example 16, 4-(N-(3-Chloro-5-(trifluoromethyl)pyridin-2-yl)-N-((2-methyl-2H-indazol-5-yl)methyl)sulfamoyl)benzoic acid] | 1000 to 10000
Cc1cc(C(=O)O)ccc1S(=O)(=O)N(Cc1ccc2c(ccn2C)c1)c1ncc(Cl)cc1Cl [Example 12, 4-(N-(3,5-Dichloropyridin-2-yl)-N-((1-methyl-1H-indol-5-yl)methyl)sulfamoyl)-3-methylbenzoic acid] | < 1000
Cn1ncc2cc(CN(c3ncc(C(F)(F)F)cc3Cl)S(=O)(=O)c3ccc(C(=O)O)cc3Cl)ccc21 [Example 25, 3-Chloro-4-(N-(3-chloro-5-(trifluoromethyl)pyridin-2-yl)-N-((1-methyl-1H-indazol-5-yl)methyl)sulfamoyl)benzoic acid] | < 1000
Cc1cc(C(=O)O)ccc1S(=O)(=O)N(Cc1ccc2c(cnn2C2CC2)c1)c1ncc(Cl)cc1Cl [Example 34, 4-(N-((1-Cyclopropyl-1H-indazol-5-yl)methyl)-N-(3,5-dichloropyridin-2-yl)sulfamoyl)-3-methylbenzoic acid] | < 1000
Cc1cc(C(=O)O)ccc1S(=O)(=O)N(Cc1ccc2c(ccn2C)c1)c1ncc(C(F)(F)F)cc1Cl [Example 11, 4-(N-(3-Chloro-5-(trifluoromethyl)pyridin-2-yl)-N-((1-methyl-1H-indol-5-yl)methyl)sulfamoyl)-3-methylbenzoic acid] | < 1000
O=C(O)c1ccc(S(=O)(=O)N(Cc2ccc3c(cnn3C3CC3)c2)c2ncc(C(F)(F)F)cc2Cl)c(Cl)c1 [Example 31, 3-Chloro-4-(N-(3-chloro-5-(trifluoromethyl)pyridin-2-yl)-N-((1-cyclopropyl-1H-indazol-5-yl)methyl)sulfamoyl)benzoic acid] | < 1000
CCn1ncc2cc(CN(c3ncc(C(F)(F)F)cc3Cl)S(=O)(=O)c3ccc(C(=O)O)cc3Cl)ccc21 [Example 14, 3-Chloro-4-(N-(3-chloro-5-(trifluoromethyl)pyridin-2-yl)-N-((1-ethyl-1H-indazol-5-yl)methyl)sulfamoyl)benzoic acid] | < 1000
Cn1ccc2cc(CN(c3ncc(C(F)(F)F)cc3Cl)S(=O)(=O)c3ccc(C(=O)O)cc3Cl)cnc21 [Example 35, 3-Chloro-4-(N-(3-chloro-5-(trifluoromethyl)pyridin-2-yl)-N-((1-methyl-1H-pyrrolo[2,3-b]pyridin-5-yl)methyl)sulfamoyl)benzoic acid] | < 1000
O=C(O)c1ccc(S(=O)(=O)N(Cc2ccc3c(cnn3C3CC3)c2)c2ncc(Cl)cc2Cl)c(Cl)c1 [Example 32, 3-Chloro-4-(N-((1-cyclopropyl-1H-indazol-5-yl)methyl)-N-(3,5-dichloropyridin-2-yl)sulfamoyl)benzoic acid] | < 1000
O=C(O)c1ccc(S(=O)(=O)N(Cc2ccc3ncccc3c2)c2ncc(C(F)(F)F)cc2Cl)cc1 [Example 39, 4-(N-(3-Chloro-5-(trifluoromethyl)pyridin-2-yl)-N-(quinolin-6-ylmethyl)sulfamoyl)benzoic acid] | < 1000
Cn1ccc2cc(CN(c3ncc(C(F)(F)F)cc3Cl)S(=O)(=O)c3ccc(C(=O)O)cc3)ccc21 [Example 6, 4-(N-(3-Chloro-5-(trifluoromethyl)pyridin-2-yl)-N-((1-methyl-1H-indol-5-yl)methyl)sulfamoyl)benzoic acid] | < 1000
Cn1ccc2cc(CN(c3ncc(Cl)cc3Cl)S(=O)(=O)c3ccc(C(=O)O)cc3Cl)ccc21 [Example 9, 3-Chloro-4-(N-(3,5-dichloropyridin-2-yl)-N-((1-methyl-1H-indol-5-yl)methyl)sulfamoyl)benzoic acid] | < 1000
Cn1ncc2ccc(CN(c3ncc(C(F)(F)F)cc3Cl)S(=O)(=O)c3ccc(C(=O)O)cc3)cc21 [Example 17, 4-(N-(3-Chloro-5-(trifluoromethyl)pyridin-2-yl)-N-((1-methyl-1H-indazol-6-yl)methyl)sulfamoyl)benzoic acid] | < 1000
Cn1cc2ccc(CN(c3ncc(C(F)(F)F)cc3Cl)S(=O)(=O)c3ccc(C(=O)O)cc3)cc2n1 [Example 18, 4-(N-(3-Chloro-5-(trifluoromethyl)pyridin-2-yl)-N-((2-methyl-2H-indazol-6-yl)methyl)sulfamoyl)benzoic acid] | 1000 to 10000
O=C(O)c1ccc(S(=O)(=O)N(Cc2ccc3ccoc3c2)c2ncc(Cl)cc2Cl)cc1 [Example 10, 4-(N-(Benzofuran-6-ylmethyl)-N-(3,5-dichloropyridin-2-yl)sulfamoyl)benzoic acid] | < 1000
CCc1cc(C(=O)O)ccc1S(=O)(=O)N(Cc1ccc2c(cnn2C)c1)c1ncc(Cl)cc1Cl [Example 23, 4-(N-(3,5-Dichloropyridin-2-yl)-N-((1-methyl-1H-indazol-5-yl)methyl)sulfamoyl)-3-ethylbenzoic acid] | < 1000
Cc1cc(C(=O)O)ccc1S(=O)(=O)N(Cc1ccc2c(cnn2C)c1)c1ncc(Cl)cc1Cl [Example 27, 4-(N-(3,5-Dichloropyridin-2-yl)-N-((1-methyl-1H-indazol-5-yl)methyl)sulfamoyl)-3-methylbenzoic acid] | < 1000
Cn1ncc2cc(CN(c3ncc(C(F)(F)F)cc3Cl)S(=O)(=O)c3ccc(C(=O)O)cc3)ccc21 [Example 3, 4-(N-(3-Chloro-5-(trifluoromethyl)pyridin-2-yl)-N-((1-methyl-1H-indazol-5-yl)methyl)sulfamoyl)benzoic acid] | < 1000
CCn1cc2cc(CN(c3ncc(C(F)(F)F)cc3Cl)S(=O)(=O)c3ccc(C(=O)O)cc3)ccc2n1 [Example 13, 4-(N-(3-Chloro-5-(trifluoromethyl)pyridin-2-yl)-N-((2-ethyl-2H-indazol-5-yl)methyl)sulfamoyl)benzoic acid] | < 1000
Cn1nnc2cc(CN(c3ncc(C(F)(F)F)cc3Cl)S(=O)(=O)c3ccc(C(=O)O)cc3)ccc21 [Example 30, 4-(N-(3-Chloro-5-(trifluoromethyl)pyridin-2-yl)-N-((1-methyl-1H-benzo[d][1,2,3]triazol-5-yl)methyl)sulfamoyl)benzoic acid] | 1000 to 10000
Cn1ccc2cc(CN(c3ncc(Cl)cc3Cl)S(=O)(=O)c3ccc(C(=O)O)cc3Cl)cnc21 [Example 36, 3-Chloro-4-(N-(3,5-dichloropyridin-2-yl)-N-((1-methyl-1H-pyrrolo[2,3-b]pyridin-5-yl)methyl)sulfamoyl)benzoic acid] | 1000 to 10000
O=C(O)c1ccc(S(=O)(=O)N(Cc2ccc3c(cnn3C3CCOCC3)c2)c2ncc(C(F)(F)F)cc2Cl)cc1 [Example 21, 4-(N-(3-Chloro-5-(trifluoromethyl)pyridin-2-yl)-N-((1-(tetrahydro-2H-pyran-4-yl)-1H-indazol-5-yl)methyl)sulfamoyl)benzoic acid] | < 1000
O=C(O)c1ccc(S(=O)(=O)N(Cc2ccc3occc3c2)c2ncc(Cl)cc2Cl)cc1 [Example 5, 4-(N-(Benzofuran-5-ylmethyl)-N-(3,5-dichloropyridin-2-yl)sulfamoyl)benzoic acid] | < 1000
CCn1ncc2cc(CN(c3ncc(Cl)cc3Cl)S(=O)(=O)c3ccc(C(=O)O)cc3)ccc21 [Example 19, 4-(N-(3,5-Dichloropyridin-2-yl)-N-((1-ethyl-1H-indazol-5-yl)methyl)sulfamoyl)benzoic acid] | < 1000
O=C(O)c1ccc(S(=O)(=O)N(Cc2cnc3ccccc3c2)c2ncc(C(F)(F)F)cc2Cl)cc1 [Example 38, 4-(N-(3-Chloro-5-(trifluoromethyl)pyridin-2-yl)-N-(quinolin-3-ylmethyl)sulfamoyl)benzoic acid] | < 1000
Cn1ccc2cc(CN(c3ncc(C(F)(F)F)cc3Cl)S(=O)(=O)c3ccc(C(=O)O)cc3)cnc21 [Example 37, 4-(N-(3-Chloro-5-(trifluoromethyl)pyridin-2-yl)-N-((1-methyl-1H-pyrrolo[2,3-b]pyridin-5-yl)methyl)sulfamoyl)benzoic acid] | < 1000
Cn1ccc2cc(CN(c3ncc(C(F)(F)F)cc3Cl)S(=O)(=O)c3ccc(C(=O)O)cc3Cl)ccc21 [Example 8, 3-Chloro-4-(N-(3-chloro-5-(trifluoromethyl)pyridin-2-yl)-N-((1-methyl-1H-indol-5-yl)methyl)sulfamoyl)benzoic acid] | < 1000
CC(C)(O)Cn1ncc2cc(CN(c3ncc(C(F)(F)F)cc3Cl)S(=O)(=O)c3ccc(C(=O)O)cc3)ccc21 [Example 22, 4-(N-(3-Chloro-5-(trifluoromethyl)pyridin-2-yl)-N-((1-(2-hydroxy-2-methylpropyl)-1H-indazol-5-yl)methyl)sulfamoyl)benzoic acid] | 1000 to 10000
COCCn1ncc2cc(CN(c3ncc(C(F)(F)F)cc3Cl)S(=O)(=O)c3ccc(C(=O)O)cc3)ccc21 [Example 20, 4-(N-(3-Chloro-5-(trifluoromethyl)pyridin-2-yl)-N-((1-(2-methoxyethyl)-1H-indazol-5-yl)methyl)sulfamoyl)benzoic acid] | < 1000
O=C(O)c1ccc(S(=O)(=O)N(Cc2ccc3c(cnn3C3CC3)c2)c2ncc(C(F)(F)F)cc2Cl)cc1 [Example 28, 4-(N-(3-Chloro-5-(trifluoromethyl)pyridin-2-yl)-N-((1-cyclopropyl-1H-indazol-5-yl)methyl)sulfamoyl)benzoic acid] | < 1000

Reference: patent US8829026B2, “Sulfamoyl benzoic acid heterobicyclic derivatives as TRPM8 antagonists” (RaQualia Pharma Inc., priority 2010, dated 2014)
